The source of these data is ChEMBL document CHEMBL1132341, “Synthesis and characterization of fluorescent ligands for the norepinephrine transporter: potential neuroblastoma imaging agents” (J Med Chem, 1999).

As a reminder, the IC50 is the concentration needed to halve the response being measured. Read a low IC50 as greater potency in that assay.

The assay relates to SK-N-SH. Nature of the assay: Inhibition of [3H]NE uptake into human SK-N-SH-SY5Y Neuroblastoma cells. In kind it is functional, cell-based.
The compound `CNCCC(NS(=O)(=O)c1cccc2c(N(C)C)cccc12)c1ccccc1` (stereo not drawn) came in with an IC50 of 370 nM.
`CNCCC(Nc1ccc([N+](=O)[O-])c2nonc12)c1ccccc1` (stereo not drawn) returned an IC50 of 850 nM.
The compound `CCOC(=O)[C@@H]1[C@H](O/C(S)=N/c2ccc(/N=N/c3ccc(N(C)C)cc3)cc2)C[C@H]2CC[C@@H]1N2C` gave an IC50 of 1320 nM.
With `CCOC(=O)[C@@H]1[C@H](OS(=O)(=O)c2cccc3c(N(C)C)cccc23)C[C@H]2CC[C@@H]1N2C`, the concentration for half-maximal inhibition (IC50) turned out to be 60 nM.
The result for `N=C(N)NCCN1c2ccccc2C=Cc2ccccc21` reads 30 nM; that for `N=C(N)NCc1cccc2ccccc12`, 60 nM.
The result for `CNCCC(/N=C(\S)Nc1ccc(/N=N/c2ccc(N(C)C)cc2)cc1)c1ccccc1` (stereo not drawn) reads 1020 nM.
In the case of `N=C(N)NCc1ccc(/C=C/c2ccccc2)cc1` it was 120 nM.
